# Data taken from patent US10350188B2, “Use of Neu1 sialidase inhibitors in the treatment of cancer” (priority 2011, dated 2019).
# Assays:
# [1] = target: carboxylesterase (Homo sapiens, UniProt P23141); conditions: cited from earlier work
# [2] = target: T1, Neu1 sialidase (Mus musculus, UniProt O35657); conditions: live BMA macrophage cells; clopidogrel bisulfate 280 and 500 μM pre-treatment; LPS 5 μg/mL; oseltamivir phosphate 400 μM; cited from earlier work
# [3] = target: T2, sialidase activity associated with TLR ligand treated live BMC-2 macrophage cells (Mus musculus, UniProt O35657); conditions: 1-2 mM, compared to LPS positive control; cited from earlier work
# T2 construct: endogenous in cells; host or cells: BMC-2 macrophage cells
# [4] = target: T1, Neu1 sialidase; assay: LPS-induced Neu1 sialidase activity in live BMA macrophage cells (4-MUNANA); type: cell-based; design: endogenous in cells; host or cells: BMA macrophage cells
# Experimental: TLR-expressing BMA macrophage cells were grown on 12 mm circular glass slides in culture media containing DMEM supplemented with 10% fetal calf serum. […] Fluorescent images were taken after 2-3 minutes using epi-fluorescent microscopy (Zeiss Imager M2, 40× objective).
# This recently developed assay was used to detect sialidase activity on the surface of viable cells. […] The inhibitory potency of a series of amide-linked C9 modified DANA (2-deoxy-2,3-dehydro-D-N-acetylneuraminic add) analogues on lipopolysaccharide (LPS)-induced Neu1 sialidase activity was assessed in live BMA macrophage cells.
# [5] = tested on: MiaPaCa-2 cells; assay: Cell viability of MiaPaCa-2 pancreatic cancer cells in culture (MTT or WST-1, 72 hrs); type: cell-based, human; conditions: MiaPaCa-2; for Chemo-drug LD50: MTT, 72 hrs
# [6] = tested on: MDA MB-231 cells; assay: Cell viability of MDA MB-231 breast cancer cells in culture (MTT or WST-1, 72 hrs); type: cell-based, human; conditions: MDA MB-231; for Chemo-drug LD50: WST-1, 72 hrs
# Experimental: (§1) MDA MB-231cells (ATCC® Number: HTB-26™) are human mammary gland breast adenocarcinoma derived from metastatic pleural effusion with epithelial morphology. MCF-7 (ATCC® Number: HTB-22™) are human mammary gland breast adenocarcinoma derived from metastatic pleural effusion with epithelial morphology.
# (§2) All cells were grown at 37° C. in 5% CO2 in culture media containing Dulbecco's Modified Eagle Medium (DMEM) (Gibco, Rockville, Md.) supplemented with 10% fetal calf serum (FCS) (HyClone, Logan, Utah, USA).
# (§3) MTT is a colorimetric assay for measuring the activity of enzymes that reduce MTT or closely related dyes (XTT, MTS, WSTs) to formazan dye, giving a purple color. A main application allows the assessment of the viability (cell counting) and the proliferation of cells (cell culture assays). It can also be used to determine cytotoxicity of potential medicinal agents and toxic materials, since those agents would stimulate or inhibit cell viability and growth. MTT (3-(4,5-Dimethylthiazol-2-yl)-2,5-diphenyltetrazolium bromide, a yellow tetrazole), is reduced to purple formazan in living cells. A solubilization solution (usually either dimethyl sulfoxide, an acidified ethanol solution, or a solution of the detergent sodium dodecyl sulphate in diluted hydrochloric acid) is added to dissolve the insoluble purple formazan product into a coloured solution. The absorbance of this coloured solution can be quantified by measuring at a certain wavelength (usually between 500 and 600 nm) by a spectrophotometer. The absorption maximum is dependent on the solvent employed.
# (§4) WST-1 (Roche Applied Sciences, Montreal) is a ready-to-use substrate which measures the metabolic activity of viable cells. The WST-1 assay is nonradioactive and can be performed entirely in a microplate. It is suitable for measuring cell proliferation, cell viability or cytotoxicity. The assay is based on the reduction of WST-1 by viable cells. The reaction produces a soluble formazan salt. The procedure involves: Culturing the cells in a 96-well microplate, then incubating them with WST-1 for approx. 0.5-4 h. During this incubation period, viable cells convert WST-1 to a water-soluble formazan dye. Quantitating the formazan dye in the microplate is done with an ELISA plate reader. The absorbance directly correlates with the cell number.
# [7] = tested on: MCF-7 cells; assay: Cell viability of MCF-7 breast cancer cells in culture (MTT or WST-1, 72 hrs); type: cell-based, human; conditions: MCF-7; for Chemo-drug LD50: WST-1, 72 hrs
# Experimental: as §1, §2, §3, §4
# [8] = tested on: A 2780cis cells; assay: Cell viability of A 2780cis ovarian cancer cells in culture (MTT or WST-1, 72 hrs); type: cell-based, human; conditions: A 2780cis; for Chemo-drug LD50: WST-1, 72 hrs
# Experimental: (§5) A-2780 cells are human ovarian cancer cell line which was established from tumor tissue from an untreated patient with adenocarcinoma. Cells grow as a monolayer and in suspension in spinner cultures.
# as §2, §3, §4
# [9] = tested on: Capan-1 cells; assay: Cell viability of Capan-1 pancreatic metastatic cancer cells in culture (MTT or WST-1, 72 hrs); type: cell-based, human; conditions: Capan-1; for Chemo-drug LD50: WST-1, 72 hrs
# Experimental: CAPAN-1 cells (ATCC® Number: HTB-79™) are human pancreatic cancer cell line with epithelial morphology expressing the 17 beta-estradiol (E2)-binding estrogen receptor and derived from metastatic liver with adenocarcinoma.
# as §2, §3, §4
# [10] = tested on: PANC-1 cells; assay: Cell viability of PANC-1 pancreatic cancer cells in culture (MTT or WST-1, 72 hrs); type: cell-based, human; conditions: PANC-1; for Chemo-drug LD50: MTT, 72 hrs
# [11] = tested on: BxPC-3 cells; assay: Cell viability of BxPC-3 pancreatic cancer cells in culture (MTT or WST-1, 72 hrs); type: cell-based, human; conditions: BxPC-3; for Chemo-drug LD50: MTT, 72 hrs
# [12] = tested on: PANC-1 human pancreatic cancer cells implanted in RAG1/Cγ double mutant NOD xenograft mice; assay: PANC-1 pancreatic cancer xenograft in RAG1/Cγ double mutant NOD mice; conditions: for Liver metastases % Inhibition: vs untreated day 79
# Source text: An immunodeficient mouse model with a double mutation in the combining recombinase activating gene-1 or -2 (RAG1 or RAG2) and common cytokine receptor γ chain (cγ) were used as xenograft mice. […] Mice deficient in both RAG2 and cγ (RAG2−/−/cγ−/−) were generated by inter-crossing and were maintained in SPF isolators in the Animal Care Facility, Queen's University, Kingston, Ontario K7L3N6, Canada. A colony was established in the animal facility. Mice deficient in both RAG1 and cγ (RAG1^−/−×cγ^−/−) on a non-obese diabetic (NOD) genetic background were obtained from the Jackson Laboratory (Bar Harbor, Me.) and a colony was established in the animal facility. All mice were kept under sterile conditions in micro-isolators or air-filtered cages, and were provided with autoclaved food and water. […] They were used between 6 and 8 weeks of age.
# Puromycin-resistance eGFP transduced MiaPaCa-2 or PANC-1 cell clones were grown in 75 cm^2 cell culture flask at 80% confluence. The cells were resuspended into solution using TrypLE Express (Gibco) and washed with sterile saline. The cell suspension was centrifuged for 3 min at 900 rpm, and the cell pellet resuspended in sterile saline at a concentration of 5-10×10^6 cells/mL for 1-2×10^6 cells implantation into the right back flank of the mouse. Tumour measurements were taken twice a week. Tumour volumes were determined by (width square/2)×length.
# The RAG1/Cγ double mutant xenograft mouse model was implanted with 2×10^6 PANC-1 cells in 0.2 mL in the right back flank.
# [13] = tested on: A 2780 cells; assay: Cell viability of A 2780 ovarian cancer cells in culture (MTT or WST-1, 72 hrs); type: cell-based, human; conditions: A 2780; for Chemo-drug LD50: WST-1, 72 hrs
# Experimental: as §5, §2, §3, §4
# [14] = target: T3, Neu1 sialidase (Homo sapiens, UniProt Q99519); conditions: 2 mM; lysates from mature dendritic cells; cited from earlier work
# T3 construct: using lysates from mature dendritic cells; host or cells: lysates from mature dendritic cells
# [15] = target: T4, human Neu3 sialidase (Homo sapiens, UniProt Q9UQ49); conditions: in the micromolar range; cited from earlier work
# T4 sequence (Q9UQ49 1-428): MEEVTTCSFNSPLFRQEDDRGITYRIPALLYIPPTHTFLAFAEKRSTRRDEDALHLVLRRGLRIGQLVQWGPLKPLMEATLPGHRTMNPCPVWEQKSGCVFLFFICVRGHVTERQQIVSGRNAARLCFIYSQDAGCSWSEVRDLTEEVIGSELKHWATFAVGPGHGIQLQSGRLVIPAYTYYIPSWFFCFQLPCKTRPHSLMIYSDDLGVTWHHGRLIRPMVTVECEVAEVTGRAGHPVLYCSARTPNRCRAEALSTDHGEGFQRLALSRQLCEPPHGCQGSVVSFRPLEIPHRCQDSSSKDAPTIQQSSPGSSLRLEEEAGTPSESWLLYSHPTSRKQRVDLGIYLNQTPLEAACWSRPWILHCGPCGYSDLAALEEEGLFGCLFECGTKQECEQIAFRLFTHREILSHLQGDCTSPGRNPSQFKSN
# [16] = tested on: Neu1 sialidase; conditions: NGF treated live TrkA-expressing cells; cited from earlier work
# [17] = tested on: Neu3 sialidase; conditions: 2 mM; lysates from mature dendritic cells; cited from earlier work
# [18] = tested on: TLR4/MD2; conditions: HEK293 cells stably transfected with TLR4/MD2; cited from earlier work
# [19] = co-treatment oseltamivir phosphate 730 μM
# [20] = co-treatment oseltamivir phosphate 1460 μM
# [21] = chemo-drug alone, abraxane 0.5 mg/kg day 78, gemcitabine 30 mg/kg day […]
# [22] = day 84, Gemcitabine 30 mg/kg alone
# [23] = day 93, Gemcitabine 30 mg/kg alone
# [24] = day 112, Gemcitabine 30 mg/kg alone
# [25] = oseltamivir phosphate 2 mg/kg, alone day 90, with abraxane 0.5 day 78, with gemcitabine 30 day 110
# [26] = oseltamivir phosphate 5 mg/kg, alone day 90, with abraxane 0.5 day 90, with gemcitabine 30 day 109
# Sequence of carboxylesterase (P23141 18-567): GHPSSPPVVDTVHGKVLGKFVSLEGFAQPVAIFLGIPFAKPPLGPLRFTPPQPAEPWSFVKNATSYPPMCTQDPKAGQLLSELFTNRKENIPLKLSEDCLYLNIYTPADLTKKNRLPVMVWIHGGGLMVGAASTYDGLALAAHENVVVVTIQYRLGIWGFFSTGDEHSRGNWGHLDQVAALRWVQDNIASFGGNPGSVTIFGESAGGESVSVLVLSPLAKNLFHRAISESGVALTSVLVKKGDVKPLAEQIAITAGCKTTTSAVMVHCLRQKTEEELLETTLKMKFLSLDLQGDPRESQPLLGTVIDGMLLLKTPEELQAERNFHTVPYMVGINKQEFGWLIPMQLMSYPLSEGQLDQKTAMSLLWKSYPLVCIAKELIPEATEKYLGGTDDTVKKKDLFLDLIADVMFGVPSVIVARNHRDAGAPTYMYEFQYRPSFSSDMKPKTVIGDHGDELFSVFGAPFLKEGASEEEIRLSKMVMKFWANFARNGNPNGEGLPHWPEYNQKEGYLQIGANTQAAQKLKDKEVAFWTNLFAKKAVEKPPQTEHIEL
molecule,measurement,setting,value
COC(=O)[C@H](c1ccccc1Cl)N1CCc2sccc2C1 [clopidogrel],Inhibition of hydrolysis of oseltamivir phosphate by carboxylesterase,[1],≤ 90%
same,Effect on oseltamivir phosphate's capacity to inhibit LPS induced sialidase activity,[2],no effect
"CC(=O)N[C@H]1[C@H]([C@H](O)[C@H](O)CO)OC(C(=O)O)=C[C@@H]1O [DANA, 2-deoxy-2,3-dehydro-N-acetylneuraminic acid]",Inhibition of LPS induced sialidase activity (in words),[3],limited effect
same,Inhibition of Neu1 sialidase (in words),[4],moderate inhibitor of Neu1 sialidase
"Nc1ccn([C@@H]2O[C@H](CO)[C@@H](O)C2(F)F)c(=O)n1 [gemcitabine, Gemcitabine]",Chemo-drug LD50,[5]; [19],0.78 µM
same,Chemo-drug LD50,[5]; [20],0.078 µM
same,Chemo-drug LD50,[5]; oseltamivir phosphate 0 μM,0.78 µM
same,Chemo-drug sensitivity with oseltamivir phosphate (fold increase),[5]; oseltamivir phosphate 730 μM,1 fold increase
same,Chemo-drug sensitivity with oseltamivir phosphate (fold increase),[5]; oseltamivir phosphate 1460 μM,10 fold increase
same,Chemo-drug LD50,[6]; [19],40 µM
same,Chemo-drug LD50,[6]; oseltamivir phosphate 0 μM,70 µM
same,Chemo-drug sensitivity with oseltamivir phosphate (fold increase),[6]; oseltamivir phosphate 730 μM,2 fold increase
same,Chemo-drug LD50,[7]; [19],40 µM
same,Chemo-drug LD50,[7]; oseltamivir phosphate 0 μM,40 µM
same,Chemo-drug sensitivity with oseltamivir phosphate (fold increase),[7]; oseltamivir phosphate 730 μM,1 fold increase
same,Chemo-drug LD50,[8]; [19],40 µM
same,Chemo-drug LD50,[8]; oseltamivir phosphate 0 μM,60 µM
same,Chemo-drug sensitivity with oseltamivir phosphate (fold increase),[8]; oseltamivir phosphate 730 μM,1.5 fold increase
same,Chemo-drug LD50,[9]; [19],30 µM
same,Chemo-drug LD50,[9]; oseltamivir phosphate 0 μM,60 µM
same,Chemo-drug sensitivity with oseltamivir phosphate (fold increase),[9]; oseltamivir phosphate 730 μM,2 fold increase
same,Chemo-drug LD50,[10]; [19],1.6 µM
same,Chemo-drug LD50,[10]; [20],1.5 µM
same,Chemo-drug LD50,[10]; oseltamivir phosphate 0 μM,>26 µM
same,Chemo-drug sensitivity with oseltamivir phosphate (fold increase),[10]; oseltamivir phosphate 730 μM,16 fold increase
same,Chemo-drug sensitivity with oseltamivir phosphate (fold increase),[10]; oseltamivir phosphate 1460 μM,17 fold increase
same,Chemo-drug LD50,[11]; [19],0.78 µM
same,Chemo-drug LD50,[11]; [20],1 µM
same,Chemo-drug LD50,[11]; oseltamivir phosphate 0 μM,0.78 µM
same,Chemo-drug sensitivity with oseltamivir phosphate (fold increase),[11]; oseltamivir phosphate 730 μM,1 fold increase
same,Chemo-drug sensitivity with oseltamivir phosphate (fold increase),[11]; oseltamivir phosphate 1460 μM,0.78 fold increase
same,Liver metastases (ave number of nodules),[12]; [21],12
same,"Metastases (size, mm)",[12]; [21],0.3-1.5 mm
same,Tumour volume,"[12]; day 79, chemotherapeutic alone (Abraxane 0.5 mg/kg or Gemcitabine 30 mg/kg i.p. once weekly)",200 ± 47 (5) mm^3
same,% Inhibition To untreated,"[12]; day 79, chemotherapeutic alone (Abraxane 0.5 or Gemcitabine 30 mg/kg)",86%
same,% Inhibition To untreated,"[12]; day 79, chemotherapeutic alone (Abraxane 0.5 or Gemcitabine 30 mg/kg), listed as Gemcitabine",86% (p < 0.0001)
same,% Inhibition To untreated,[12]; [22],89%
same,Tumour volume,[12]; [22],159 ± 52 (5) mm^3
same,% Inhibition To untreated,"[12]; day 84, Gemcitabine 30 mg/kg alone, listed as Gemcitabine",89% (p < 0.0001)
same,% Inhibition To untreated,[12]; [23],69%
same,Tumour volume,[12]; [23],437 ± 140 (3) mm^3
same,% Inhibition To untreated,"[12]; day 93, Gemcitabine 30 mg/kg alone, listed as Gemcitabine",69% (p < 0.0001)
same,% Inhibition To untreated,[12]; [24],63%
same,Tumour volume,[12]; [24],507 ± 357(2) mm^3
same,% Inhibition To untreated,"[12]; day 112, Gemcitabine 30 mg/kg alone, listed as Gemcitabine",63%
same,Liver metastases (ave number of nodules),"[12]; oseltamivir phosphate 2 mg/kg, alone day 90, with abraxane 0.5 mg/kg day 78, with gemcitabine 30 mg/kg day 110",10
same,"Metastases (size, mm)",[12]; [25],0.5-1.2 mm
same,Liver metastases % Inhibition,[12]; [25],76%
same,Liver metastases (ave number of nodules),"[12]; oseltamivir phosphate 5 mg/kg, alone day 90, with abraxane 0.5 mg/kg day 90, with gemcitabine 30 mg/kg day 109",8
same,"Metastases (size, mm)",[12]; [26],0.2-1.5 mm
same,Liver metastases % Inhibition,[12]; [26],81%
same,Chemo-drug LD50,[13]; [19],40 µM
same,Chemo-drug LD50,[13]; oseltamivir phosphate 0 μM,60 µM
same,Chemo-drug sensitivity with oseltamivir phosphate (fold increase),[13]; oseltamivir phosphate 730 μM,1.5 fold increase
"CC(=O)N[C@H]1[C@H]([C@H](O)[C@H](O)CO)OC(C(=O)O)=C[C@@H]1N=C(N)N [zanamivir, 4-guanidino-Neu5Ac2en]",Inhibition of Neu1 sialidase activity (in words),[14],completely inhibited
same,Inhibition of LPS induced sialidase activity (in words),[3],limited effect
same,Inhibition of human Neu3 sialidase (in words),[15],significantly inhibited
same,Inhibition of Neu1 sialidase activity (in words),[16],limited inhibitory effect
same,Inhibition of Neu3 sialidase activity (in words),[17],completely inhibited
CCC(CC)[C@H](NC(C)=O)[C@@H]1C[C@@H](C(=O)O)C[C@H]1N=C(N)N [BCX-1827],Inhibition of LPS induced sialidase activity (in words),[3],limited effect
"galectin-1: α-2,3-sialyl specific galectin-1",Inhibition of TLR ligand-induced NFκB responses (in words),[18],significantly inhibited
